Data reported in PubChem BioAssay AID1188 (EPA DSSTox, 2008).
Calls of active or inactive are those of the source.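 How the source made its calls: active means a concentration killing half the fathead minnows in the acute test was determined; inconclusive means some fish died but not half at top dose; inactive means no fish died even at top dose.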

system: Fathead minnow (Pimephales promelas) acute toxicity, lethality; test: DSSTox (EPAFHM) EPA Fathead Minnow Acute Toxicity
From the text: The EPA Fathead Minnow Acute Toxicity database was generated by the U.S. EPA Mid-Continental Ecology Division (MED) for the purpose of developing an expert system to predict acute toxicity from chemical structure based on mode of action considerations. […] A second valuable aspect of this database, from a QSAR modeling perspective, is the inclusion of general mode-of-action (MOA) classifications of acute toxicity response for individual chemicals derived from study results. MOA assignments are biologically based classifications, allowing definition of chemical similarity based upon biological activity instead of organic chemistry functional class as most commonly employed in QSAR study. MOA classifications should strengthen the scientific basis for construction of individual QSARs. However, it is cautioned that the broad MOA categorizations should not be construed to represent a single molecular mechanism; for example, CNS seizure agents and respiratory inhibitors are known to act through a variety of receptors. The EPA Fathead Minnow database and results have been used by EPA MED to build components of the ASTER prediction system, which incorporates MOA-based QSARs for the prediction of aquatic toxicity of environmental and industrial chemicals. Briefly, MOA classifications for individual chemicals, derived from experiments and provided in the EPA Fathead Minnow database, were used to derive substructural rules for assigning a new chemical to an MOA category based solely on chemical structure. Once a new chemical is assigned to an MOA category on this basis, the logP-based QSAR for that MOA category is applied.
The DSSTox EPAFHM database (available from the DSSTox Source URL) includes information pertaining to organic chemical class assignments (ChemClass_FHM), acute toxicity in fathead minnow (LC50_mg), dose-response assessments (LC50_Ratio, ExcessToxicityIndex), behavioral assessments (FishBehaviorTest), joint toxicity MOA evaluations of mixtures (MOA_MixtureTest), and additional MOA evaluation of fish acute toxicity syndrome (FishAcuteToxSyndrome) in rainbow trout. All of these indicators, to the extent available, were considered in the determination of MOA and, additionally, were used to determine a level of confidence in the MOA assignment for each chemical (MOA_Confidence). […] Activity Score is mapping of LOG10 (1/LC50_mmol) activity values spanning activity range [MIN, MAX] onto Integer 1-100 Activity range, where 100 is highest potency and 1 is lowest. If Activity Outcome is "active": Activity Score = 100 * INTEGER[(log10(1/ LC50_mmol) - MIN)/([…])].

| SMILES | Potency [µM] | outcome |
| --- | --- | --- |
| CC(C)CO | 19300 |  |
| CCCCCCC1CCC(=O)O1 (stereo not drawn) | 106 |  |
| c1ccc2ncccc2c1 | 602 |  |
| CCOCC | 34500 |  |
| Nc1ccc(Cl)cc1 | 246 |  |
| Oc1c(Cl)cc(Cl)c(Cl)c1Cl | 4.44 |  |
| Cc1ccc(N)c(Cl)c1 | 254 |  |
| Cc1nc(C)c(C)o1 | 4040 |  |
| CC(=O)CC(C)C | 5210 |  |
| C=CCc1ccccc1O | 112 |  |
| ClC(Cl)(Cl)C(Cl)(Cl)Cl | 6 |  |
| CNc1ccc(F)cc1 | 307 |  |
| Clc1cc(Cl)c(SSc2cc(Cl)c(Cl)cc2Cl)cc1Cl |  | inactive; moa not determined either due to lack of toxicity at saturation or late test res |
| CCN(CC)C1CCCCC1 | 138 |  |
| CCC#N | 27600 |  |
| CCCCCCCCCCCC#N | 2.37 |  |
| Nc1c(Cl)c(Cl)cc(Cl)c1Cl | 1.17 |  |
| CCN(CC)c1ccccc1 | 110 |  |
| CCCN(CCC)CCC | 355 |  |
| Oc1ccc(Cl)cc1O | 10.9 |  |
| ClCCl | 3890 |  |
| CC(C)c1ccc2c(c1)CC[C@H]1[C@](C)(C(=O)O)CCC[C@]21C | 6.99 |  |
| CCCCN | 3660 |  |

| SMILES | Potency [µM] | outcome |
| --- | --- | --- |
| CNC(=O)Oc1ccccc1OC(C)C | 42.1 |  |
| CCc1ccc(O)cc1 | 85.1 |  |
| CCCCCCCO | 297 |  |
| CCCCC(CC)CO (stereo not drawn) | 217 |  |
| Cc1c[nH]c2ccccc12 | 67.4 |  |
| Cc1ccccc1 | 368 |  |
| CCCCCCCCCc1ccc(O)cc1 | 0.635 |  |
| O=c1cc(-c2ccccc2)oc2ccccc12 | 15.7 |  |
| Nc1ccc([N+](=O)[O-])cc1 | 905 |  |
| CC(=O)Nc1cccc(O)c1 | 7480 |  |
| Nc1c(F)c(F)c(F)c(F)c1F | 203 |  |
| Nc1cccc(OCc2ccccc2)c1 | 45.9 |  |
| CCCCCCCCCCN | 6.55 |  |
| C=Cn1c2ccccc2c2ccccc21 | 0.0166 |  |
| Clc1cccc(Cl)c1 | 54.6 |  |
| CCCC(C)=O | 14400 |  |
| CCN(CC)c1ccc(C=O)c(O)c1 | 27.7 |  |
| ClC(Cl)C(Cl)(Cl)Cl | 37.2 |  |
| C=C(C)C(=O)OC(C)C | 296 |  |
| OC(C(F)(F)F)C(F)(F)F | 1450 |  |
| O=c1cc[nH]c(=O)[nH]1 |  | inactive; moa not determined either due to lack of toxicity at saturation or late test res |
| COP(=S)(OC)SCn1nnc2ccccc2c1=O | 0.202 |  |
| Cc1cc(O)ccc1Cl | 38.4 |  |

| SMILES | Potency [µM] | outcome |
| --- | --- | --- |
| Cc1c(Cl)cccc1NC=O | 275 |  |
| O=Cc1c(F)cccc1Cl | 59.3 |  |
| CCCCN(C=O)CCCC | 568 |  |
| c1ccc(-c2ccncc2)cc1 | 104 |  |
| NC(=O)c1cccc(Br)c1 | 463 |  |
| CCc1ccc(N)cc1 | 602 |  |
| Cc1ccc(C)c(C)c1 | 64.2 |  |
| CCNCc1ccccc1 | 422 |  |
| CCCCOc1ccccc1 | 38 |  |
| CCOc1ccc(N)c([N+](=O)[O-])c1 | 143 |  |
| O=C(Oc1ccccc1)c1ccccc1C(=O)Oc1ccccc1 | 0.251 |  |
| Cc1ccncc1 | 4330 |  |
| CC(C)=C1C=C2CC[C@@H]3[C@](C)(CCC[C@@]3(C)C(=O)O)[C@H]2CC1 | 4.93 |  |
| O=S(=O)([O-])c1ccc[n+](Cc2ccccc2)c1 | 9670 |  |
| c1ccc2ccccc2c1 | 47.9 |  |
| c1ccncc1 | 1260 |  |
| C=CC(O)CCC (stereo not drawn) | 304 |  |
| CCCCC(CC)COC(=O)c1ccccc1C(=O)OCC(CC)CCCC (stereo not drawn) |  | inactive; moa not determined either due to lack of toxicity at saturation or late test res |
| C=C(C)C(=O)OCCO | 1740 |  |
| Fc1ccc(Oc2ccc(F)cc2)cc1 | 5.48 |  |
| C1CCOC1 | 30000 |  |
| Nc1ccc(F)cc1C(F)(F)F | 165 |  |
| C=CC(Cl)CCl (stereo not drawn) | 65.4 |  |

| SMILES | Potency [µM] | outcome |
| --- | --- | --- |
| C=C(C)[C@H]1Cc2c(ccc3c2O[C@@H]2COc4cc(OC)c(OC)cc4[C@@H]2C3=O)O1 | 0.0132 |  |
| Cc1ccccn1 | 9630 |  |
| CCCCCCCCC(C)=O | 30.9 |  |
| CC1CNCC(C)O1 (stereo not drawn) | 3360 |  |
| NCc1ccccc1 | 952 |  |
| Nc1ccccc1Cl | 45 |  |
| IC(I)I | 7.42 |  |
| CCCCCCC(C)N (stereo not drawn) | 40.2 |  |
| OCCCl | 667 |  |
| CCOCCOC(C)=O | 319 |  |
| COC(=O)c1ccc([N+](=O)[O-])cc1 | 131 |  |
| CC/C(C)=N/O | 9680 |  |
| CC(C)(C)CN | 5450 |  |
| Cl[C@@H]1CCCC[C@H]1Cl | 120 |  |
| Nc1ccccc1 | 1130 |  |
| C#CC(C)(C)O | 39100 |  |
| CCCSSCCC | 17 |  |
| NC(=O)c1c(Cl)cccc1Cl | 2470 |  |
| C=CC(=O)OCCCCCCCCCCCC |  | inactive; moa not determined either due to lack of toxicity at saturation or late test res |
| CC(O)CCl (stereo not drawn) | 2590 |  |
| CCSCCCCSCC | 34 |  |
| CC(C)(C)CC(C)(C)N | 190 |  |
| COc1ccc(C(C)=O)c(OC)c1OC | 947 |  |

| SMILES | Potency [µM] | outcome |
| --- | --- | --- |
| Oc1c(I)cc(I)cc1I | 2.56 |  |
| CC(C)c1ccc(C=O)cc1 | 44.7 |  |
| O=[N+]([O-])c1ccccc1O | 1150 |  |
| O=Cc1cc(Cl)ccc1O | 4.92 |  |
| NCCN1CCNCC1 | 17000 |  |
| CC(=O)C(C)CN(C)C (stereo not drawn) | 65.8 |  |
| CC(Cl)(Cl)Cl | 355 |  |
| O=S(Cc1ccccc1)Cc1ccccc1 | 348 |  |
| CN(C)c1ccc(P(=O)(c2ccc(N(C)C)cc2)c2ccc(N(C)C)cc2)cc1 |  | inactive; moa not determined either due to lack of toxicity at saturation or late test res |
| O=C1c2ccccc2C(=O)c2ccccc21 |  | inactive; moa not determined either due to lack of toxicity at saturation or late test res |
| CC(C)SSC(C)C | 55.3 |  |
| C1CN2CCN1CC2 | 15400 |  |
| CCC(=O)c1ccc(N)cc1 | 979 |  |
| C1OCOCO1 | 66100 |  |
| Oc1cc(Cl)c(Cl)cc1O | 4.97 |  |
| Cc1ncc[nH]1 | 3480 |  |
| BrCCCBr | 10.4 |  |
| O=Cc1cccc(Oc2ccc(Cl)c(Cl)c2)c1 | 1.12 |  |
| Cc1ccc(Cl)c(Cl)c1 | 18.1 |  |
| Oc1c(Cl)cc(Cl)c(Cl)c1Cc1c(O)c(Cl)cc(Cl)c1Cl | 0.0516 |  |
| NC(=O)c1ccccc1 | 5460 |  |
| Cc1ccccc1C#N | 382 |  |
| Nc1ccc(Cl)c(Cl)c1Cl | 18.5 |  |

| SMILES | Potency [µM] | outcome |
| --- | --- | --- |
| CCOP(=S)(OCC)Oc1nc(Cl)c(Cl)cc1Cl | 0.907 |  |
| OCCOCCOCCO | 459000 |  |
| CC(C)(O)CCc1ccccc1 | 404 |  |
| CN(C)c1ccc(C=O)cc1 | 306 |  |
| NC(=O)c1ccccc1O | 736 |  |
| CCCCCCCCCCO | 15.2 |  |
| O=S(c1ccccc1)c1ccccc1 | 432 |  |
| Cc1cc(C)c(C#N)c(=O)[nH]1 | 1060 |  |
| OCC#CCO | 623 |  |
| Oc1ccc(Cl)cc1Cl | 47.5 |  |
| O=[N+]([O-])c1ccccc1Oc1ccc(Cl)cc1 | 7.69 |  |
| CCc1ccccc1 | 98.9 |  |
| CCCCOC(C)=O | 155 |  |
| ClC(Cl)=C(Cl)Cl | 99.5 |  |
| C#CC(O)(c1ccccc1)c1ccccc1 | 53.3 |  |
| NCCc1ccccn1 |  | inactive; moa not determined either due to lack of toxicity at saturation or late test res |
| CC(C)O | 144000 |  |
| CC=O | 767 |  |
